The experiment has as its system monocistronic NK5.1 HCV replicon in Huh7 cells. Briefly: HCV replicon assay, monocistronic replicon cell line. It is filed as cell-based, hepatitis C virus. The settings on record: Hepatitis C virus, Huh-7, 72 h; Table 1; monocistronic replicon in Huh7 cells, 3 days incubation, HCV RNA/GAPDH RNA by TaqMan RT-PCR; read-out: Mono EC50 Median. From the text: HCV Replicon Assays (Replicon EC50 (μM))
HCV replication can be measured by a replicon assay such as described by Vrolijk et al, J. Virol. Methods 110:201(2003), which is hereby incorporated in its entirety by reference. The method was implemented as follows.
Monocistronic Replicon Cell Line:
Human hepatocyte Huh7 cells containing the monocistronic NK5.1 replicon were obtained from Ralf Bartenschlager at the University of Mainz, Germany. These cells were maintained under hygromycin selection and passaged when 80-90% confluent.
This cell line contains an autonomously replicating RNA element (replicon) incorporating the non-structural HCV elements necessary for replication, and upon which the survival of the replicon in the cell depends. This replicon contains a single internal ribosome entry site (HCV IRES). Inhibition of any of the critical HCV finctions by a compound leads to loss of the replicon as measured by HCV replicon RNA copy number reduction. The amount of HCV RNA present following a standard incubation with a compound is a measure of the anti-HCV activity of the compound. The assay was conducted by preparing sufficient 96-well plates containing these cells, wherein cells are seeded at 6000 cells/well in a 96-well plate, in 200 μl of final media volume. Cells were then incubated for 24 hours at 37 C., 5% CO2, and 95% humidity before compound was added. Six point half-log concentration response assays were conducted to determine potency/EC50 of Formula I compounds to inhibit HCV replicon replication. The final percent DMSO acceptable in this assay system is 0.6%. Compounds were diluted in media in an appropriate format and 5 μl of each drug dilution is added to each well. Cells were then incubated with compounds for 3 days at 37 C., 5% CO2, and 95% humidity. Following the three day incubation period, plates were washed twice with phosphate buffered saline to remove media and cells were lysed with Qiagen extraction buffer. RNA was extracted and isolated with the Qiagen RNAeasy kit according to the manufacturer's protocol (Qiagen). TaqMan One-Step RT-PCR was used in conjunction with an ABI 7700 Sequence Detector (Applied Biosystems) for the quantitation and analysis of HCV replicon RNA copy number. A GAPDH probe was used for internal normalization. The ratio of HCV RNA to cellular GAPDH RNA was determined and compared to the DMSO-only treated control, and the ratio of HCV RNA/GAPDH RNA was used for an EC50 determination and as a measure of specificity for inhibition of the HCV replicon.
A general note: In antiviral work, replicon cells carry a viral genome segment that copies itself.

With `Cc1cc(-c2c(O)ccc3ccccc23)nn1-c1ccccc1[N+](=O)[O-]` [Compound 1, 1-[5-Methyl-1-(2-nitro-phenyl)-1 H-pyrazol-3-yl]-naphthalen-2-ol], the EC50 is more than 32 µM. The figure for `Cc1cc(-c2ccccc2O)nn1-c1ccccc1[N+](=O)[O-]` [Compound 2, 2-[5-Methyl-1-(2-nitro-phenyl)-1H-pyrazol-3-yl]-phenol] is more than 32 µM. With `Cc1cc(-c2ccccc2O)n(-c2ccccc2[N+](=O)[O-])n1` [Compound 3, 2-[5-Methyl-2-(2-nitro-phenyl)-2H-pyrazol-3-yl]-phenol], the EC50 amounted to 31 µM. With `Cc1cc(-c2c(O)ccc3ccccc23)nn1-c1ccccc1` [Compound 4, 1-(5-Methyl-1-phenyl-1H-pyrazol-3-yl)-naphthalen-2-ol] the figure was more than 19 µM.

For the compound `Cc1cc(-c2c(O)ccc3ccccc23)nn1-c1ccccc1C(F)(F)F` [Compound 5, 1-[5-Methyl-1-(2-trifluoromethyl-phenyl)-1H-pyrazol-3-yl]-naphthalen-2-ol], the EC50 was more than 19 µM. The figure for `Cc1cc(-c2c(O)ccc3ccccc23)n(-c2ccccc2C(F)(F)F)n1` [Compound 6, 1-[5-Methyl-2-(2-trifluoromethyl-phenyl)-2H-pyrazol-3-yl]-naphthalen-2-ol] is 13 µM; for `Cc1cc(-c2ccccc2O)nn1-c1ccccc1C(F)(F)F` [Compound 7, 2-[5-Methyl-i-(2-trifluoromethyl-phenyl)-1H-pyrazol-3-yl]-phenol] it is 20 µM. With `COc1ccc(-n2nc(-c3c(O)ccc4ccccc34)cc2C)cc1` [Compound 8] the figure was more than 19 µM; with `Cc1cc(-c2ccc3ccccc3c2O)n(-c2ccccn2)n1` [Compound 9, 2-(5-Methyl-2-pyridin-2-yl-2H-pyrazol-3-yl)-naphthalen-1-ol], more than 19 µM. For the compound `Cc1cc(-c2cc(C)c(C)cc2O)n(-c2ccccc2C)n1` [Compound 10, 4,5-Dimethyl-2-(5-methyl-2-o-tolyl-2H-pyrazol-3-yl)-phenol], the EC50 is more than 19 µM. With `Cc1cc(-c2ccccc2O)nn1-c1ccccc1` [Compound 11, 2-(5-Methyl-1-phenyl-1H-pyrazol-3-yl)-phenol] the figure was 9 µM; with `Cc1cc(-c2ccc3ccccc3c2O)nn1-c1ccccc1[N+](=O)[O-]` [Compound 12, 2-[5-Methyl-1-(2-nitro-phenyl)-1H-pyrazol-3-yl]-naphthalen-1-ol], 13 µM; with `Cc1cc(-c2c(O)ccc3ccccc23)nn1-c1ccc(C(C)C)cc1` [Compound 13, 1-[1-(4-Isopropyl-phenyl)-5-methyl-1H-pyrazol-3-yl]-naphthalen-2-ol], more than 19 µM.

With `COc1ccc(-n2nc(-c3ccccc3O)cc2C)cc1` [Compound 14, 2-[1-(4-Methoxy-phenyl)-5-methyl-1H-pyrazol-3-yl]-phenol], the EC50 amounted to 11 µM. The figure for `Cc1cc(O)c(-c2cc(C)n(-c3ccccc3F)n2)cc1C` [Compound 15, 2-[1-(2-Fluoro-phenyl)-5-methyl-1H-pyrazol-3-yl]-4,5-dimethyl-phenol] is more than 19 µM. Consider `Cc1cc(-c2ccc3ccccc3c2O)nn1-c1ccccc1C(F)(F)F` [Compound 16, 2-[5-Methyl-1-(2-trifluoromethyl-phenyl)-1H-pyrazol-3-yl]-naphthalen-1-ol], for which the EC50 is 17 µM. The figure for `Cc1cc(O)c(-c2cc(C)n(-c3ccccc3)n2)cc1C` [Compound 17, 4,5-Dimethyl-2-(5-methyl-1-phenyl-1H-pyrazol-3-yl)-phenol] is more than 19 µM.

As for `Cc1cc(-c2c(O)ccc3ccccc23)nn1-c1ccc(Cl)cc1` [Compound 18, 1-[1-(4-Chloro-phenyl)-5-methyl-1H-pyrazol-3-yl]-naphthalen-2-ol], the EC50 came to 18 µM. With `Cc1cc(-c2ccc3ccccc3c2O)n(-c2ccc(Cl)cc2)n1` [Compound 19, 2-[2-(4-Chloro-phenyl)-5-methyl-2H-pyrazol-3-yl]-naphthalen-1-ol] the figure was 17 µM; with `Cc1cc(-c2c(O)ccc3ccccc23)nn1-c1ncc(C(F)(F)F)cc1Cl` [Compound 20, 1-[1-(3-Chloro-5-trifluoromethyl-pyridin-2-yl)-5-methyl-1H-pyrazol-3-yl]-naphthalen-2-ol], 13 µM; with `Cc1cc(O)c(-c2cc(C)n(-c3ccc(Cl)cc3)n2)cc1C` [Compound 22, 2-[1-(4-Chloro-phenyl)-5-methyl-1H-pyrazol-3-yl]-4,5-dimethyl-phenol], more than 19 µM. With `Cc1cc(O)c(-c2cc(C)n(-c3nc4ccccc4s3)n2)cc1C` [Compound 23, 2-(l-Benzothiazol-2-yl-5-methyl-1H-pyrazol-3-yl)-4,5-dimethyl-phenol] the figure was more than 19 µM; with `Cc1cc(O)c(-c2cc(C)n(-c3ccccc3C(F)(F)F)n2)cc1C` [Compound 24, 4,5-Dimethyl-2-[5-methyl-i-(2-trifluoromethyl-phenyl)-1H-pyrazol-3-yl]-phenol], more than 19 µM; with `Cc1cc(-c2c(O)ccc3ccccc23)nn1-c1ncccc1[N+](=O)[O-]` [Compound 25, 1-[5-Methyl-1-(3-nitro-pyridin-2-yl)-1H-pyrazol-3-yl]-naphthalen-2-ol], more than 19 µM. `Cc1cc(-c2c(O)ccc3ccccc23)nn1-c1ncccc1C(F)(F)F` [Compound 26, 1-[5-Methyl-1-(3-trifluoromethyl-pyridin-2-yl)-1H-pyrazol-3-yl]-naphthalen-2-ol]: the EC50 was more than 19 µM. The figure for `Cc1cc(C(F)(F)F)cc(-n2nc(-c3c(O)ccc4ccccc34)cc2C)n1` [Compound 27, 1-[5-Methyl-i-(6-methyl-4-trifluoromethyl-pyridin-2-yl)-1 H-pyrazol-3-yl]-naphthalen-2-ol] is 12 µM; for `Cc1cc(-c2c(O)ccc3ccccc23)nn1-c1ccccn1` [Compound 28, 1-(5-Methyl-1-pyridin-2-yl-1H-pyrazol-3-yl)-naphthalen-2-ol] it is more than 19 µM; for `Cc1cc(-c2ccc3ccccc3c2O)nn1-c1ccc(C(C)C)cc1` [Compound 29, 2-[1-(4-Isopropyl-phenyl)-5-methyl-1H-pyrazol-3-yl]-naphthalen-1-ol] it is more than 19 µM. With `Cc1cc(O)c(-c2cc(C)n(-c3ccc(C(C)C)cc3)n2)cc1C` [Compound 30, 2-[1-(4-Isopropyl-phenyl)-5-methyl-1H-pyrazol-3-yl]-4,5-dimethyl-phenol] the figure was 12 µM; with `COc1ccccc1-c1ccn(-c2ccccc2[N+](=O)[O-])n1` [Compound 31, 3-(2-Methoxy-phenyl)-1-(2-nitro-phenyl)-1H-pyrazole], 21 µM. For the compound `COc1ccccc1-c1ccnn1-c1ccccc1[N+](=O)[O-]` [Compound 32, 5-(2-Methoxy-phenyl)-1-(2-nitro-phenyl)-1H-pyrazole], the concentration giving a half-maximal response (EC50) amounted to 3.6 µM. With `Oc1ccccc1-c1ccnn1-c1ccccc1F` [Compound 35, 2-[2-(2-Fluoro-phenyl)-2H-pyrazol-3-yl]-phenol] the figure was 14 µM; with `COc1ccccc1-c1ccn(-c2ncccc2[N+](=O)[O-])n1` [Compound 36, 2-[3-(2-Methoxy-phenyl)-pyrazol-1-yl]-3-nitro-pyridine], 2.3 µM; with `COc1ccccc1-c1ccnn1-c1ncccc1[N+](=O)[O-]` [Compound 37, 2-[5-(2-Methoxy-phenyl)-pyrazol-1-yl]-3-nitro-pyridine], more than 32 µM.

In the case of `COc1ccccc1-c1ccn(-c2ncccc2C(F)(F)F)n1` [Compound 38, 2-[3-(2-Methoxy-phenyl)-pyrazol-1-yl]-3-trifluoromethyl-pyridine], the EC50 came to 13 µM. The figure for `COc1ccccc1-c1ccn(-c2ccccn2)n1` [Compound 39, 2-[3-(2-Methoxy-phenyl)-pyrazol-1-yl]-pyridine] is more than 32 µM. The figure for `COc1ccccc1-c1ccnn1-c1ccccn1` [Compound 40, 2-[5-(2-Methoxy-phenyl)-pyrazol-1-yl]-pyridine] is more than 32 µM; for `O=[N+]([O-])c1cccnc1-n1ccc(-c2ccccc2O)n1` [Compound 41, 2-[1-(3-Nitro-pyridin-2-yl)-1H-pyrazol-3-yl]-phenol] it is 6 µM; for `Oc1ccccc1-c1ccn(-c2ncccc2C(F)(F)F)n1` [Compound 42, 2-[1-(3-Trifluoromethyl-pyridin-2-yl)-1H-pyrazol-3-yl]-phenol] it is 6 µM. With `Oc1ccccc1-c1ccn(-c2ccccn2)n1` [Compound 43, 2-(1-Pyridin-2-yl-1H-pyrazol-3-yl)-phenol] the figure was 15 µM.

As usually defined, the EC50 is the concentration that produces a half-maximal response.

(Values after US20050075375A1 (priority 2003, published 2005).)
